Read-outs that look alike come from different tables or passages of the source.

The target in one test is human P2X2/3 receptor (Homo sapiens (Human), UniProt P56373+Q9UBL9). The experiment in a line: Intracellular calcium measurement (FLIPR, Fluo-4) of antagonist activity at human P2X2/3 receptors. Type of test: cell-based. To be noted: human P2X2/3, FLIPR calcium assay, agonist α,β-Me-ATP; read-out: hP2X2/3 IC50. The method in brief:
(§1)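 Cells expressing human P2X3 or P2X2/3, loaded with Fluo-4, preincubated 30 min at 37° C. with compound (1% DMSO final), then challenged with α,β-Me-ATP at its EC80. Peak FLIPR fluorescence over 90 sec gave % response; IC50, maximal inhibition and Hill slope from triplicates.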

A further test has as its target human P2X3 receptor (Homo sapiens (Human), UniProt P56373). The experiment in a line: Intracellular calcium measurement (FLIPR, Fluo-4) of antagonist activity at human P2X3 receptors. To be noted: read-out: hP2X3 IC50. Type of test: cell-based. The method in brief:
as §1
Background: Calcium flux is commonly read through the fluorescence of an indicator in the cells.

Setting [1] is: human P2X3, FLIPR calcium assay, agonist α,β-Me-ATP.

Sequence of human P2X3 receptor (P56373 whole entry): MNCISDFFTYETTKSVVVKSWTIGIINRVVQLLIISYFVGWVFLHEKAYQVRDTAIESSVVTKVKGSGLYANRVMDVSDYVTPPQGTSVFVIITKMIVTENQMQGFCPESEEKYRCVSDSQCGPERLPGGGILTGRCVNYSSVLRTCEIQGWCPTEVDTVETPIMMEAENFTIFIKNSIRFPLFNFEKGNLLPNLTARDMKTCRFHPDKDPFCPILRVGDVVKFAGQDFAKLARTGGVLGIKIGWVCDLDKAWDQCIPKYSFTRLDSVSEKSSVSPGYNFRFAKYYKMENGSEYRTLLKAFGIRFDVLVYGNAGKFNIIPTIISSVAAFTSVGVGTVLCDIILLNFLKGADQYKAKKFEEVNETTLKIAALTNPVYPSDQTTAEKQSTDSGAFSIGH
Sequence of human P2X2/3 receptor (P56373 whole entry): as above
Sequence of human P2X2/3 receptor (Q9UBL9 whole entry): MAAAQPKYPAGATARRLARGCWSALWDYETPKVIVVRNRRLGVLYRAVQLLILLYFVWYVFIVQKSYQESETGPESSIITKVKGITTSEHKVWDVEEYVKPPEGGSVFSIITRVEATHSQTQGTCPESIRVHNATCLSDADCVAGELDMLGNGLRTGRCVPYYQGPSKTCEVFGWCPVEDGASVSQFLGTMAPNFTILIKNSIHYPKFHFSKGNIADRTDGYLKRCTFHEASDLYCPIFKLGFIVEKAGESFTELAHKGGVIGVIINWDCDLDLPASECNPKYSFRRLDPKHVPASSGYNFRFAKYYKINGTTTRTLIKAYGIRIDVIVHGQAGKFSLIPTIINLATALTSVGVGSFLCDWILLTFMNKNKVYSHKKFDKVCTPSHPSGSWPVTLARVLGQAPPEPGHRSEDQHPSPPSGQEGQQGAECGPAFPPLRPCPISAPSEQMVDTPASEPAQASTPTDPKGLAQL

Regarding `Cc1ccc([C@@H](C)NC(=O)c2cc(OCC3CC3)cc(-c3ncc(C)s3)c2)nn1` [Example 8, 3-(Cyclopropylmethoxy)-N-[(1R)-1-(6-methylpyridazin-3-yl)ethyl]-5-(5-methyl-1,3-thiazol-2-yl)benzamide], the IC50 is 90 nM at human P2X2/3 receptor and 3 nM at human P2X3 receptor (setting [1]).

With `Cc1cnc(-c2cc(OC[C@@H]3COCCO3)cc(C(=O)N[C@H](C)c3ccc(C(F)(F)F)nc3)c2)s1` [Example 180, 3-[(2S)-1,4-dioxan-2-ylmethoxy]-5-(5-methyl-1,3-thiazol-2-yl)-N-{(1R)-1-[6-(trifluoromethyl)pyridin-3-yl]ethyl}benzamide], the IC50 on human P2X2/3 receptor was determined as 1400 nM; on human P2X3 receptor (setting [1]), 31 nM.

For `Cc1cnc(CNC(=O)c2cc(OC[C@@H]3CCCO3)cc(-c3ncc(C)s3)c2)cn1` [Example 56, N-[(5-Methylpyrazin-2-yl)methyl]-3-(5-methyl-1,3-thiazol-2-yl)-5-[(2S)-tetrahydrofuran-2-ylmethoxy]benzamide], the IC50 is no less than 10000 nM at human P2X2/3 receptor and 148 nM on human P2X3 receptor (setting [1]).

Regarding `Cc1cnc(-c2cc(OC[C@H]3CN(C)CCO3)cc(C(=O)NCc3cnc(C(F)(F)F)nc3)c2)s1` [Example 372, 3-{[(2R)-4-methylmorpholin-2-yl]methoxy}-5-(5-methyl-1,3-thiazol-2-yl)-N-{[2-(trifluoromethyl)pyrimidin-5-yl]methyl}benzamide], the figures for the IC50 at human P2X2/3 receptor and on human P2X3 receptor (setting [1]) were 1210 nM and 19 nM, respectively.

On to `CCOC(=O)N1CCC(Oc2cc(C(=O)N[C@H](C)c3cnc(C(F)(F)F)nc3)cc(-c3ncc(C)s3)c2)CC1` [Example 227, Ethyl 4-[3-(5-methyl-1,3-thiazol-2-yl)-5-({(1R)-1-[2-(trifluoromethyl)pyrimidin-5-yl]ethyl}carbamoyl)phenoxy]piperidine-1-carboxylate], for which the IC50 at human P2X2/3 receptor worked out at 161 nM; at human P2X3 receptor (setting [1]) it was 13 nM.

As to `Cc1cnc(-c2cc(O[C@@H]3CCCN(C(=O)OC(C)(C)C)C3)cc(C(=O)N[C@H](C)c3cnc(C(F)(F)F)nc3)c2)s1` [Example 190, tert-Butyl (3R)-3-[3-(5-methyl-1,3-thiazol-2-yl)-5-({(1R)-1-[2-(trifluoromethyl)pyrimidin-5-yl]ethyl}carbamoyl)phenoxy]piperidine-1-carboxylate], the IC50 is 207 nM on human P2X2/3 receptor and 7 nM on human P2X3 receptor (setting [1]).

Regarding `Cc1cnc(-c2cc(O[C@H]3CCOC3)cc(C(=O)N[C@H](C)c3ccc(Cl)cn3)c2)s1` [Example 27, N-[(1R)-1-(5-Chloropyridin-2-yl)ethyl]-3-(5-methyl-1,3-thiazol-2-yl)-5-[(3S)-tetrahydrofuran-3-yloxy]benzamide], the IC50 at human P2X2/3 receptor was found to be 280 nM; at human P2X3 receptor (setting [1]) it was 25 nM.

Regarding `Cc1ccc([C@@H](C)NC(=O)c2cc(O[C@H]3CCOC3)cc(-c3ncc(Cl)s3)c2)nn1` [Example 322, 3-(5-chloro-1,3-thiazol-2-yl)-N-[(1R)-1-(6-methylpyridazin-3-yl)ethyl]-5-[(3S)-tetrahydrofuran-3-yloxy]benzamide], the IC50 came to 498 nM on human P2X2/3 receptor and 49 nM on human P2X3 receptor (setting [1]).

For `Cc1cnc(-c2cc(OC3CCN(C)CC3)cc(C(=O)N[C@H](C)c3cnc(C(F)(F)F)nc3)c2)s1` [Example 139, 3-[(1-Methylpiperidin-4-yl)oxy]-5-(5-methyl-1,3-thiazol-2-yl)-N-{(1R)-1-[2-(trifluoromethyl)pyrimidin-5-yl]ethyl}benzamide], the values for the IC50 at human P2X2/3 receptor and at human P2X3 receptor (setting [1]) were 962 nM and 8 nM, respectively.

On to `CC(C)c1cnc(-c2cc(OC[C@H]3CCOC3)cc(C(=O)N[C@H](C)c3cnc(C(F)(F)F)nc3)c2)s1` [Example 281, 3-[5-(propan-2-yl)-1,3-thiazol-2-yl]-5-[(3S)-tetrahydrofuran-3-ylmethoxy]-N-{(1R)-1-[2-(trifluoromethyl)pyrimidin-5-yl]ethyl}benzamide], for which the values for the IC50 at human P2X2/3 receptor and at human P2X3 receptor were 198 nM and 26 nM, respectively.

For the compound `Cc1cnc(-c2cc(OC[C@H]3COCCO3)cc(C(=O)N[C@H](C)c3ccc(C(F)(F)F)nn3)c2)s1` [Example 179, 3-[(2R)-1,4-dioxan-2-ylmethoxy]-5-(5-methyl-1,3-thiazol-2-yl)-N-{(1R)-1-[6-(trifluoromethyl)pyridazin-3-yl]ethyl} benzamide], the results for the IC50 on human P2X2/3 receptor and at human P2X3 receptor (setting [1]) were 703 nM and 13 nM, respectively.

On to `Cc1cnc(-c2cc(OC[C@H]3CN(C)CCO3)cc(C(=O)N[C@H](C)c3ccc(C(F)(F)F)nn3)c2)s1` [Example 373, 3-{[(2R)-4-methylmorpholin-2-yl]methoxy}-5-(5-methyl-1,3-thiazol-2-yl)-N-{(1R)-1-[6-(trifluoromethyl)pyridazin-3-yl]ethyl}benzamide], for which the IC50 is 2830 nM on human P2X2/3 receptor and 21 nM on human P2X3 receptor (setting [1]).

Take `Cc1cnc(-c2cc(OC3COC3)cc(C(=O)N[C@H](C)c3ccc(Cl)cn3)c2)s1` [Example 46, N-[(1R)-1-(5-Chloropyridin-2-yl)ethyl]-3-(5-methyl-1,3-thiazol-2-yl)-5-(oxetan-3-yloxy)benzamide]: the IC50 amounted to 389 nM on human P2X2/3 receptor and 10 nM on human P2X3 receptor (setting [1]).

In the case of `C[C@@H](NC(=O)c1cc(OCC2CCOCC2)cc(-c2ncc(C3CCC3)s2)c1)c1cnc(C(F)(F)F)nc1` [Example 120, 3-(5-Cyclobutyl-1,3-thiazol-2-yl)-5-(tetrahydro-2H-pyran-4-ylmethoxy)-N-{(1R)-1-[2-(trifluoromethyl)pyrimidin-5-yl]ethyl}benzamide], the IC50 at human P2X2/3 receptor is 104 nM; on human P2X3 receptor (setting [1]) it was 14 nM.

In the case of `Cc1cnc(-c2cc(OCCn3cncn3)cc(C(=O)N[C@H](C)c3ccc(C(F)(F)F)nc3)c2)s1` [Example 160, 3-(5-methyl-1,3-thiazol-2-yl)-5-[2-(1H-1,2,4-triazol-1-yl)ethoxy]-N-{(1R)-1-[6-(trifluoromethyl)pyridin-3-yl]ethyl}benzamide], the results for the IC50 at human P2X2/3 receptor and on human P2X3 receptor (setting [1]) were 1010 nM and 28 nM, respectively.

For `Cc1ccc([C@@H](C)NC(=O)c2cc(O[C@@H]3CCOC3)cc(-c3ncc(C)s3)c2)cn1` [Example 24, N-[(1R)-1-(6-Methylpyridin-3-yl)ethyl]-3-(5-methyl-1,3-thiazol-2-yl)-5-[(3R)-tetrahydrofuran-3-yloxy]benzamide], the IC50 at human P2X2/3 receptor was found to be 332 nM; at human P2X3 receptor (setting [1]) it was 36 nM.

Regarding `Cc1cnc(CNC(=O)c2cc(OC[C@H]3CCOC3)cc(-c3ncc(C)s3)c2)cn1` [Example 67, N-[(5-Methylpyrazin-2-yl)methyl]-3-(5-methyl-1,3-thiazol-2-yl)-5-[(3S)-tetrahydrofuran-3-ylmethoxy]benzamide], the IC50 is no less than 10000 nM at human P2X2/3 receptor and 186 nM at human P2X3 receptor (setting [1]).

Regarding `Cc1cnc(-c2cc(OCC3CN(C(C)C)CCO3)cc(C(=O)N[C@H](C)c3cnc(C(F)(F)F)nc3)c2)s1` (stereo in doubt) [Example 382, 3-(5-methyl-1,3-thiazol-2-yl)-5-{[(2R)-4-(propan-2-yl)morpholin-2-yl]methoxy}-N-{(1R)-1-[2-(trifluoromethyl)pyrimidin-5-yl]ethyl}benzamide], the figures for the IC50 at human P2X2/3 receptor and on human P2X3 receptor (setting [1]) were 432 nM and 13 nM, respectively.

Take `Cc1cnc(-c2cc(OC3CN(C(C)C)C3)cc(C(=O)N[C@H](C)c3cnc(C(F)(F)F)nc3)c2)s1` [Example 229, 3-(5-Methyl-1,3-thiazol-2-yl)-5-{[1-(propan-2-yl)azetidin-3-yl]oxy}-N-{(1R)-1-[2-(trifluoromethyl)pyrimidin-5-yl]ethyl}benzamide]: the IC50 at human P2X2/3 receptor was found to be 2280 nM; at human P2X3 receptor (setting [1]) it was 44 nM.

For `Cc1ccc(CNC(=O)c2cc(O[C@H]3CCOC3)cc(-c3ncc(C)s3)c2)nn1` [Example 133, N-[(6-Methylpyridazin-3-yl)methyl]-3-(5-methyl-1,3-thiazol-2-yl)-5-[(3S)-tetrahydrofuran-3-yloxy]benzamide], the IC50 was no less than 10000 nM on human P2X2/3 receptor and 177 nM on human P2X3 receptor (setting [1]).

`Cc1cnc(-c2cc(OC3CCN(C(C)C)CC3)cc(C(=O)N[C@H](C)c3cnc(C(F)(F)F)nc3)c2)s1` [Example 140, 3-(5-Methyl-1,3-thiazol-2-yl)-5-{[1-(propan-2-yl)piperidin-4-yl]oxy}-N-{(1R)-1-[2-(trifluoromethyl)pyrimidin-5-yl]ethyl}benzamide]: the values for the IC50 on human P2X2/3 receptor and on human P2X3 receptor (setting [1]) were 1300 nM and 33 nM, respectively.

`Cc1cnc(-c2cc(OC3COC3)cc(C(=O)NC(C)c3ncc(Cl)cc3F)c2)s1` (centres unmarked) [Example 44, N-[1-(5-Chloro-3-fluoropyridin-2-yl)ethyl]-3-(5-methyl-1,3-thiazol-2-yl)-5-(oxetan-3-yloxy)benzamide]: the values for the IC50 on human P2X2/3 receptor and at human P2X3 receptor (setting [1]) were 370 nM and 11 nM, respectively.

For the compound `Cc1ccc([C@@H](C)NC(=O)c2cc(Oc3ccnc(C)c3)cc(-c3ncc(C)s3)c2)cn1` [Example 107, N-[(1R)-1-(6-methylpyridin-3-yl)ethyl]-3-[(2-methylpyridin-4-yl)oxy]-5-(5-methyl-1,3-thiazol-2-yl)benzamide], the IC50 was found to be 17 nM on human P2X2/3 receptor and 9 nM at human P2X3 receptor (setting [1]).

As to `Cc1cnc(-c2cc(O[C@@H]3CCOC3)cc(C(=O)NC(C)c3ncc(F)cc3Cl)c2)s1` (stereo partly drawn) [Example 13, N-[1-(3-chloro-5-fluoropyridin-2-yl)ethyl]-3-(5-methyl-1,3-thiazol-2-yl)-5-[(3R)-tetrahydrofuran-3-yloxy]benzamide], the IC50 on human P2X2/3 receptor is 1100 nM; at human P2X3 receptor (setting [1]) it was 21 nM.

`Cc1cnc(-c2cc(OC[C@H]3COCC(=O)N3C)cc(C(=O)N[C@H](C)c3cnc(C(F)(F)F)nc3)c2)s1` [Example 395, 3-{[(3R)-4-methyl-5-oxomorpholin-3-yl]methoxyl}-5-(5-methyl-1,3-thiazol-2-yl)-N-{(1R)-1-[2-(trifluoromethyl)pyrimidin-5-yl]ethyl}benzamide]: the IC50 at human P2X2/3 receptor came out at 1310 nM; on human P2X3 receptor (setting [1]) it was 30 nM.

(Values after patent US10174016B2 (BAYER AKTIENGESELLSCHAFT, priority 2014, dated 2019).)
